Here are results for ten compounds from patent publication US12377107B2, “NT5C2 inhibitors for the treatment of chemotherapy-resistant acute lymphoblastic leukemia” (THE TRUSTEES OF COLUMBIA UNIVERSITY IN THE CITY OF NEW YORK, priority 2019, dated 2025).

In one data set the target is NT5C2 (Homo sapiens, UniProt P49902, R367Q). The experiment in a line: NT5C2 inhibition test (malachite green based assay detecting free inorganic phosphate). It is filed as biochemical.
For data set [1], the system named is NT5C2 R367Q mutant mouse lymphoblasts. The experiment in a line: Cell viability of NT5C2 R367Q mutant mouse lymphoblasts in combination with 6-MP. Type of data set: cell-based. The conditions noted are these: for synergy with 6-MP to decrease cell viability: combination with 6-mercaptopurine, dose-dependent. An excerpt:
Various embodiments relate to the synthesis and characterization of NT5C2 inhibitors, HTP47 and HTP48, for treatment of chemotherapy resistant T-ALL.
[drawing 5] • to decrease cell viability of NT5C2 R367Q mutant mouse lymphoblasts. As such, various embodiments may be used in combination with existing chemotherapies to treat T-ALL and relapsed T-ALL.
Various embodiments relate to ongoing in vitro and in vivo functional characterization and development of optimized inhibitors. […] Control experiment were performed for dose optimization of HTP47 and HTP48 in C2-2 NT5C2 WT mouse lymphoblasts. […] Synthesis reactions for HTP47 and HTP48 are also provided.

Data set [2] can be described thus: Dissolution of compound for NT5C2 inhibition test. Type of data set: physicochemical.

NT5C2, sequence (P49902 whole entry R367Q): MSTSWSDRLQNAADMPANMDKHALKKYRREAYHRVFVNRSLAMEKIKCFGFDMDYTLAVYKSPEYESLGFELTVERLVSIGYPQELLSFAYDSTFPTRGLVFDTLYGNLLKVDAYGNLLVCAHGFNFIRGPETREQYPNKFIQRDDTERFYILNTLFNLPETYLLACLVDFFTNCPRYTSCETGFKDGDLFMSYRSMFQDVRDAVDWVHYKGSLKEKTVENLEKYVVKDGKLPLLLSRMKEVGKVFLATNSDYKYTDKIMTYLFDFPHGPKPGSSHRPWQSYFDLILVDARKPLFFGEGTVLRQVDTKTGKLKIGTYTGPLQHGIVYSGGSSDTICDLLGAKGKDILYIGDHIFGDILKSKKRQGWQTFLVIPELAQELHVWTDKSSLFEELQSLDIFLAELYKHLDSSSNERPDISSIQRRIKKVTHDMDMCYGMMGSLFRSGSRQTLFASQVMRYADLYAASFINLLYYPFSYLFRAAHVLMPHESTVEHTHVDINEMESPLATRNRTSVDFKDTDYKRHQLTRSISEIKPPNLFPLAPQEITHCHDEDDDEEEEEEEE

For `CC1(CO)CCN(C(=O)c2c[nH]c(=O)c3ccccc23)CC1` [Formula 35], the NT5C2 inhibitory activity result at NT5C2 (assay format not given) is listed as “no NT5C2 inhibition activity”.

Take `NC(=O)c1c(NC(=O)c2ccc3[nH]cnc3c2)sc2c1CCC2` [HTP41]: the NT5C2 inhibitory activity entry on NT5C2 (assay format not given) was “have NT5C2 inhibitory activity”.

`NC(=O)c1c(NC(=O)c2ccc3[nH]cnc3c2)sc2c1CCCC2` [HTP2]: the NT5C2 inhibitory activity result is “have NT5C2 inhibitory activity” at NT5C2 (assay format not given) and “NT5C2 inhibitory activity” at NT5C2 (malachite green based assay).

As to `Cc1nc2nc(C(=O)Nc3sc4c(c3C(N)=O)CCCC4)ccc2[nH]1` [HTP47], the “potency of 6-MP in combination, comparison of HTP47 and HTP48” value in data set [1] (combination with 6-MP) is reported as “greater potency of 6-MP in combination with HTP47 compared to HTP48”. The “synergy with 6-MP to decrease cell viability” value in data set [1] was “act synergistically with 6-MP in a dose-dependent manner”. Moreover, the figures for the NT5C2 inhibitory activity entry on NT5C2 (assay format not given) and at NT5C2 (malachite green based assay) were “have NT5C2 inhibitory activity” and “NT5C2 inhibitory activity”, respectively.

Take `CNC1CCN(C(=O)c2c[nH]c(=O)c3ccccc23)CC1` [Formula 37]: at NT5C2 (assay format not given), the NT5C2 inhibitory activity result is “no NT5C2 inhibition activity”.

As for `CC(C)CCNC(=O)c1c[nH]c(=O)c2ccccc12` [Formula 38], the NT5C2 inhibitory activity result on NT5C2 (assay format not given) is on record as “no NT5C2 inhibition activity was observed”. Moreover, in data set [2], the dissolution entry was “did not dissolve”.

With `CCC1(CC)CCN(C(=O)c2c[nH]c(=O)c3ccccc23)CC1` [Formula 36], the NT5C2 inhibitory activity entry on NT5C2 (assay format not given) is recorded as “no NT5C2 inhibition activity”.

As to `N#Cc1c(NC(=O)c2ccc3[nH]cnc3c2)sc2c1CCCC2` [HTP22], the NT5C2 inhibitory activity result on NT5C2 (assay format not given) is recorded as “have NT5C2 inhibitory activity”.

For the compound `Cn1cnc2cc(C(=O)Nc3sc4c(c3C(N)=O)CCCC4)ccc21` [HTP48], the “synergy with 6-MP to decrease cell viability” value in data set [1] is given as “act synergistically with 6-MP in a dose-dependent manner”. The NT5C2 inhibitory activity result is “have NT5C2 inhibitory activity” on NT5C2 (assay format not given) and “NT5C2 inhibitory activity” on NT5C2 (malachite green based assay).

`NCC1CCCN(C(=O)c2c[nH]c(=O)c3ccccc23)C1` (centres unmarked) [Formula 39]: the NT5C2 inhibitory activity result at NT5C2 (assay format not given) was “no NT5C2 inhibition activity”.
